For assay [1], the system named is human 5HT2A receptor compared with human 5HT2C receptor. In words: Selectivity for 5HT2A over 5HT2C receptor (as measured by IC50 values). The format is binding.
Assay [2] is classed as in vivo, rat (male Sprague-Dawley). As for the experimental part:
FIG. 7 provides a graphic summary of the reversal of MK-801-induced hyperactivity using 116081 (7A) and clozapine (7B). […] 116081 produced a significant reversal of the effect of MK-801 at a dose of 25 μmol/kg (10 mg/kg). Results are presented as total activity counts over the 120 min of exposure to the locomotor activity apparatus after administration of MK-801. Data (mean±SEM) were analyzed by ANOVA followed by Dunnett's test (n=6-8/group).
Because part of the symptomatology of schizophrenia may be related to altered glutamate transmission at the NMDA receptor, the reversal of MK-801-induced hyperlocomotor activity in rodents has been used routinely as an animal model for detecting potential antipsychotic activity (O'Neill et al., Pharmacology Biochem. Behav., 63: 237-243, 1999). Thus, this test was used to determine potential antipsychotic properties of 116081 in vivo.
Motor activity was assessed using automated locomotor activity cages as described above (Example 11(A), supra.). Male Sprague-Dawley rats (250-350 g body weight) were administered test compounds (i.p.) and placed in the locomotor activity cages for 30 min of habituation. Following habituation,animals were administered MK-801 (0.5 μmol/kg=0.17 mg/kg, s.c.) and then immediately placed back into the locomotor activity cages, and activity was measured for 120 min. A reversal of MK-801-induced motor activity (as shown by a significant […] of ambulation) in rats is considered to be predictive of the ability of the test compound to reverse psychotic symptoms.

The test system of a further assay is 5HT2 receptors. In words: DOI locomotor activity test in rats (DOI inhibition study), intraperitoneal test compound. It counts as in vivo, rat (male Sprague-Dawley). Conditions: i.p. 30 min before DOI (0.3 mg/kg s.c.). As for the experimental part:
FIG. 3 provides a graphic summary of dose-response results from in vivo analysis of compound 116082 in a 1-(2,5-dimethoxy-4-iodophenyl)-2-aminopropane ("DOI") inhibition study (fine movement; ambulation; and animal rearing outcome measures). 116082 was administered 30 min prior to DOI. Animals were placed in locomotor activity cages 10 min after DOI administration and activity was measured for 10 min. Results are presented as total activity counts over the 10 min of exposure to the locomotor activity apparatus.
FIG. 4 provides a graphic summary of dose-response results from in vivo analysis of compound 116081 in a DOI inhibition study (fine movement; ambulation; and animal rearing outcome measures). 116081 was administered 30 min prior to DOI. Animals were placed in locomotor activity cages 10 min after DOI administration and activity was measured for 10 min. Results are presented as total activity counts over the 10 min of exposure to the locomotor activity apparatus.
Assessment of 5-HT2 receptor antagonism in vivo was made by using the DOI locomotor activity test in rats as described by Krebs-Thomson (Psychopharmacology, 140:69-74, 1998).
Motor function was assessed by using automated locomotor activity cages. The rats were placed in a standard rodent cage surrounded by photocell beams, which allow for automated recording of motor activity. […]

For `Cn1cc(Br)c(-c2cccc(NC(=O)Nc3ccc(Cl)cc3)c2)n1` [Compound 116081, N-[3-(4-bromo-1-methylpyrazol-3-yl)phenyl][(4-chlorophenyl)amino]carboxamide], the “selectivity preference for the 5HT2A receptor compared with the 5HT2C receptor” value in assay [1] stood at 100 fold. Moreover, in assay [2] (FIGS. 7A and 7B), the “efficacy in reversing motor activity induced by MK-801, compared with clozapine” value is recorded as “equiefficacious to the atypical antipsychotic clozapine”. Besides, in assay [2] (i.p., total activity counts over 120 min after MK-801), the “attenuation of MK-801-induced hyperactivity (ambulations)” value is “dose-dependently attenuated MK801-induced hyperactivity”. In addition, the “reversal of DOI-induced motor dysfunction” value in the assay with 5HT2 receptors was “beneficially reverses DOI-induced motor dysfunction”.

For the origin of these results see patent US6150393A (priority 1999, dated 2000).
